Earlier results in US11951104B2 (LIVZON PHARMACEUTICAL GROUP INC, priority 2018, dated 2024).

Tests used:
5-HT1A receptors = target: T1, 5-HT1A receptors (Homo sapiens, UniProt P08908); conditions: background
T1 sequence (P08908 1-422): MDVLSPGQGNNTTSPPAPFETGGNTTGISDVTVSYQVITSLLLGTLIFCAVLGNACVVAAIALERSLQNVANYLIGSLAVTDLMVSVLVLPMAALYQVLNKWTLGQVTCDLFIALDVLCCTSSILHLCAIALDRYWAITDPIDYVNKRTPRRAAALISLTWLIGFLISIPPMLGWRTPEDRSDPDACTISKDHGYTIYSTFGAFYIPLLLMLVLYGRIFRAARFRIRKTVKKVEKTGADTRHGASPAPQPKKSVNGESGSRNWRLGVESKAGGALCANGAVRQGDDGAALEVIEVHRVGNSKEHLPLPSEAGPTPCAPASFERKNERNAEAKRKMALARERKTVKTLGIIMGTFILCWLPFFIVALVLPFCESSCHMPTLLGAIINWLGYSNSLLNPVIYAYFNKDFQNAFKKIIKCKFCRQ

5-HT2A receptors = 5-HT2A receptors (Homo sapiens, UniProt P28223); conditions: background
5-HT2A receptors, sequence (P28223 whole entry): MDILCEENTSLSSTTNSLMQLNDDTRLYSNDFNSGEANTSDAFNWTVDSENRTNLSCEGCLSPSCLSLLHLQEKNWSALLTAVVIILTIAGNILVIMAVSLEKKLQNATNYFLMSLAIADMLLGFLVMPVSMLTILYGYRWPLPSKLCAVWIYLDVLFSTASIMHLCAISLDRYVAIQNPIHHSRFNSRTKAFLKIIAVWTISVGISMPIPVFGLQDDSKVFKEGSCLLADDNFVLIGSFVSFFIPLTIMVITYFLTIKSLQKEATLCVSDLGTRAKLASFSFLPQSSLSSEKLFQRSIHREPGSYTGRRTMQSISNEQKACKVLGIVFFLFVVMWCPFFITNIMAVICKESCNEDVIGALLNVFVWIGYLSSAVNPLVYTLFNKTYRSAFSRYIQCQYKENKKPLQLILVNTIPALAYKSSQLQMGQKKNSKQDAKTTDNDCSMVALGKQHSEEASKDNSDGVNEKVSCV

## O=C1CCc2ccc(OCCCCN3CCN(c4cccc(Cl)c4Cl)CC3)cc2N1 [aripiprazole]
5-HT1A receptors
  affinity for 5-HT1A receptors: high affinity
5-HT2A receptors
  affinity for 5-HT2A receptors: high affinity
